A short description of this series: Evaluation of active agent release in vitro from polymerized collagen-hyaluronic acid film (HPLC). Particulars: from UV-polymerized (18 min, 254 nm) collagen-hyaluronic acid film, 0.01 M phosphate buffer pH 7.4, 37° C., 1 hour to 3 months. It counts as physicochemical. As to the method: Four round pieces of 35 mm diameter polymerized film were cut into 4 sections and placed in 1.5 mL vials containing 1 mL of 0.01 M phosphate buffer at a pH of 7.4. The 16 vials were placed in a controlled temperature chamber at 37° C. Five aliquots of 100 μL were removed from 2 vials each at 1 hour, 3 days, 7 days, 2 weeks, 1 month, 2 months, and 3 months. Two vials were reserved for additional time periods if release was still noted at 3 months. Four vials of buffer only were used for controls.
Active agent concentration (e.g., Latanoprost) was measured by HPLC at Millennium Research Laboratories. Detection at nanogram levels was validated using active agent (e.g., Latanoprost) standards and concentration curves.

The structures appear in SMILES notation.

Take `CC(C)OC(=O)CCC/C=C\C[C@@H]1[C@@H](CC[C@@H](O)CCc2ccccc2)[C@H](O)C[C@@H]1O` [Latanoprost, 13,14-dihydro-17-phenyl-18,19,20-trinor-prostaglandin F2a-1-isopropyl ester]: the “Active agent release profile” value is reported as “initial bolus release at 1 day followed by sustained, zero order release through 3 months”.

The values are drawn from patent US20240252446A1, “DERIVATIZED COLLAGEN-HYALURONIC ACID BASED IMPLANTS FOR SUSTAINED DELIVERY OF OPHTHALMIC DRUGS” (SUSTAINED DRUG DELIVERY LLC, priority 2023, published 2024).
